Reference: ChEMBL document CHEMBL1201862, “PubChem BioAssay data set” (2004)
Values joined by “and” are separate entries in the source; they are usually repeats but may differ in a detail not shown here. Equal entries are not always repeated.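 Interpolation was linear, between the two tested concentrations surrounding the appropriate level; five concentrations were tested over 48 hours in 96-well plates. Abbreviation: GI50, concentration required for 50% inhibition of growth.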 Active and inactive are the calls of the source. Rule as the data show it: active = GI50 up to about 1.1 µM and inactive = higher.

Legend:
Test in all cases: DTP human tumour cell line panel, 48 h
RPMI-8226 = tested on: RPMI-8226
OVCAR-4 = tested on: OVCAR-4
SK-OV-3 = tested on: SK-OV-3
A498 = tested on: A498
SR = tested on: SR
K562 = tested on: K562
EKVX = tested on: EKVX
Hs-578T = tested on: Hs-578T
MDA-MB-435 = tested on: MDA-MB-435
MCF7 = tested on: MCF7
CCRF-CEM = tested on: CCRF-CEM
SNB-19 = tested on: SNB-19
SW-620 = tested on: SW-620
MDA-MB-231 = tested on: MDA-MB-231
DU-145 = tested on: DU-145
PC-3 = tested on: PC-3
TK-10 = tested on: TK-10
UACC-257 = tested on: UACC-257
T47D = tested on: T47D
NCI/ADR-RES = tested on: NCI/ADR-RES
HCT-116 = tested on: HCT-116
SK-MEL-28 = tested on: SK-MEL-28
HCC 2998 = tested on: HCC 2998
IGROV-1 = tested on: IGROV-1
U-251 = tested on: U-251
HOP-92 = tested on: HOP-92
CAKI-1 = tested on: CAKI-1
HCT-15 = tested on: HCT-15
786-0 = tested on: 786-0
NCI-H460 = tested on: NCI-H460
UACC-62 = tested on: UACC-62
LOX IMVI = tested on: LOX IMVI
SF-539 = tested on: SF-539
M14 = tested on: M14
NCI-H226 = tested on: NCI-H226
OVCAR-8 = tested on: OVCAR-8
SF-268 = tested on: SF-268
COLO 205 = tested on: COLO 205
SK-MEL-2 = tested on: SK-MEL-2
SNB-75 = tested on: SNB-75
HOP-62 = tested on: HOP-62
BT-549 = tested on: BT-549
KM12 = tested on: KM12
NCI-H23 = tested on: NCI-H23
SF-295 = tested on: SF-295
SK-MEL-5 = tested on: SK-MEL-5
HT-29 = tested on: HT-29
UO-31 = tested on: UO-31
HL-60 = tested on: HL-60
ACHN = tested on: ACHN
RXF 393 = tested on: RXF 393
SN12C = tested on: SN12C
Malme-3M = tested on: Malme-3M
NCI-H522 = tested on: NCI-H522

`CCOC(=O)C(C)c1nc2cc3cccnc3c(Cl)c2[nH]c1=O` (stereo unspecified) was tested, and the GI50 (RPMI-8226) was 25.9 µM (inactive), the GI50 (OVCAR-4) was > 100 µM (inactive) and the GI50 (SK-OV-3) was > 100 µM (inactive). For the same molecule, the GI50 (A498) was > 100 µM (inactive), the GI50 (SR) was 73.6 µM (inactive) and the GI50 (K562) was > 100 µM (inactive). The GI50 (EKVX) was > 100 µM (inactive), the GI50 (Hs-578T) was 54.1 µM (inactive) and the GI50 (MDA-MB-435) was > 100 µM (inactive). The GI50 (MCF7) was > 100 µM (inactive), the GI50 (CCRF-CEM) was > 100 µM (inactive) and the GI50 (SNB-19) was > 100 µM (inactive). For the same molecule, the GI50 (SW-620) was > 100 µM (inactive), the GI50 (MDA-MB-231) was 82 µM (inactive) and the GI50 (DU-145) was 20 µM (inactive). The GI50 (PC-3) was > 100 µM (inactive), the GI50 (TK-10) was > 100 µM (inactive) and the GI50 (UACC-257) was > 100 µM (inactive). For the same molecule, the GI50 (T47D) was 23.4 µM (inactive), the GI50 (NCI/ADR-RES) was > 100 µM (inactive) and the GI50 (HCT-116) was > 100 µM (inactive). The GI50 (SK-MEL-28) was > 100 µM (inactive), the GI50 (HCC 2998) was 85.3 µM (inactive) and the GI50 (IGROV-1) was 52.6 µM (inactive). For the same molecule, the GI50 (U-251) was > 100 µM (inactive), the GI50 (HOP-92) was > 100 µM (inactive) and the GI50 (CAKI-1) was > 100 µM (inactive). The GI50 (HCT-15) was greater than 100 µM, the GI50 (786-0) was > 100 µM (inactive) and the GI50 (NCI-H460) was 32.4 µM (inactive). The GI50 (UACC-62) was > 100 µM (inactive), the GI50 (LOX IMVI) was > 100 µM (inactive) and the GI50 (SF-539) was > 100 µM (inactive). For the same molecule, the GI50 (M14) was > 100 µM (inactive), the GI50 (NCI-H226) was > 100 µM (inactive) and the GI50 (OVCAR-8) was > 100 µM (inactive). For the same molecule, the GI50 (SF-268) was 86.1 µM (inactive), the GI50 (COLO 205) was > 100 µM (inactive) and the GI50 (SK-MEL-2) was 86.9 µM (inactive). The GI50 (SNB-75) was > 100 µM (inactive), the GI50 (HOP-62) was > 100 µM (inactive) and the GI50 (BT-549) was > 100 µM (inactive). For the same molecule, the GI50 (KM12) was > 100 µM (inactive), the GI50 (NCI-H23) was > 100 µM (inactive) and the GI50 (SF-295) was > 100 µM (inactive). The GI50 (SK-MEL-5) was > 100 µM (inactive), the GI50 (HT-29) was > 100 µM (inactive) and the GI50 (UO-31) was > 100 µM (inactive). The GI50 (HL-60) was > 100 µM (inactive), the GI50 (ACHN) was 94.6 µM (inactive) and the GI50 (RXF 393) was > 100 µM (inactive).
In the case of `COc1ccc(-c2c(C#N)c(N)n(C3OC(COC(C)=O)C(OC(C)=O)C(OC(C)=O)C3OC(C)=O)c(=S)c2C#N)cc1` (stereo unspecified), the GI50 (RPMI-8226) is reported as 26.1 µM (inactive) and 30.8 µM (inactive), the GI50 (SN12C) is reported as 76.4 µM (inactive) and 43.3 µM (inactive) and the GI50 (OVCAR-4) is reported as 24.4 µM (inactive) and 23.4 µM (inactive). The GI50 (SK-OV-3) was 29.4 µM (inactive) and 26.2 µM (inactive), the GI50 (A498) was 33.7 µM (inactive) and 28.6 µM (inactive) and the GI50 (EKVX) was 26.5 µM (inactive) and 30 µM (inactive). The GI50 (Hs-578T) was 36.6 µM (inactive) and 27.4 µM (inactive), the GI50 (MCF7) was 29 µM (inactive) and 22.2 µM (inactive) and the GI50 (SNB-19) was 40 µM (inactive) and 55.8 µM (inactive). For the same molecule, the GI50 (SW-620) was > 100 µM (inactive), the GI50 (MDA-MB-231) was 27.9 µM (inactive) and 29.9 µM (inactive) and the GI50 (PC-3) was 35.8 µM (inactive) and 37.8 µM (inactive). The GI50 (UACC-257) was 43.1 µM (inactive) and 23.7 µM (inactive), the GI50 (T47D) was 18.6 µM (inactive) and 28.3 µM (inactive) and the GI50 (NCI/ADR-RES) was > 100 µM (inactive) and 75.2 µM (inactive). The GI50 (HCT-116) was 55.5 µM (inactive) and 39.4 µM (inactive), the GI50 (HCC 2998) was 30.3 µM (inactive) and 18.2 µM (inactive) and the GI50 (Malme-3M) was 43.9 µM (inactive) and 23.9 µM (inactive). For the same molecule, the GI50 (U-251) was 46.5 µM (inactive) and 31.7 µM (inactive), the GI50 (HOP-92) was 17.1 µM (inactive) and 19.2 µM (inactive) and the GI50 (CAKI-1) was 34.6 µM (inactive) and 53.1 µM (inactive). The GI50 (HCT-15) was 50.2 µM, the GI50 (786-0) was 27.7 µM (inactive) and 28.6 µM (inactive) and the GI50 (NCI-H460) was 47 µM (inactive) and 61.4 µM (inactive). For the same molecule, the GI50 (UACC-62) was 20.8 µM (inactive) and 20 µM (inactive), the GI50 (LOX IMVI) was 34.3 µM (inactive) and 32.9 µM (inactive) and the GI50 (SF-539) was 22.9 µM (inactive) and 40.1 µM (inactive). The GI50 (NCI-H226) was 50.1 µM (inactive) and 91 µM (inactive), the GI50 (OVCAR-8) was 34.2 µM (inactive) and 21.3 µM (inactive) and the GI50 (SF-268) was 21.4 µM (inactive) and 25.5 µM (inactive). The GI50 (SK-MEL-2) was 22.8 µM (inactive) and 24.2 µM (inactive), the GI50 (SNB-75) was 17.5 µM (inactive) and 15.6 µM (inactive) and the GI50 (HOP-62) was 28.6 µM (inactive) and 19.8 µM (inactive). For the same molecule, the GI50 (BT-549) was 26.1 µM (inactive) and 26.7 µM (inactive), the GI50 (NCI-H23) was 44 µM (inactive) and 58.6 µM (inactive) and the GI50 (SF-295) was 40.5 µM (inactive) and 35.7 µM (inactive). For the same molecule, the GI50 (SK-MEL-5) was 23.4 µM (inactive) and 21.7 µM (inactive), the GI50 (NCI-H522) was 23.3 µM (inactive) and 25.6 µM (inactive) and the GI50 (ACHN) was 50.8 µM (inactive) and 33.6 µM (inactive). The GI50 (RXF 393) was 29.5 µM (inactive) and 24.5 µM (inactive).
